Reference: paper PMC4604124, “In Vitro Characterization of the Pharmacological Properties of the Anti-Cancer Chelator, Bp4eT, and Its Phase I Metabolites” (PLoS ONE, 2015)
Where “and” joins values, the source holds several entries; their conditions need not be identical. Identical values can stand only once.

How the values were obtained:
Format in all cases: cell-based, human
[1] = system: labile iron pool of MCF-7 cells; assay: Calcein-AM assay, access to the labile iron pool; design: Calcein fluorescence: unit not given here; settings: 10 μM; for Chelation efficacy: fluorescence of free calcein at t = 600 s as percentage of Bp4eT: MCF-7, mean of 6 experiments; for Fluorescence of free calcein at 600 s as percentage of Bp4eT: MCF-7, single experiments
Method: These experiments were performed according to Glickstein et al. with slight modifications. The MCF-7 cells were seeded in 96-well plates (10,000 cells/well) and allowed to adhere for 24 h/37°C. Cells were loaded with iron using the cellular iron donor, ferric ammonium citrate (530 μg/mL), 24 h prior to the experiment, and then washed. To prevent potential interference, especially with regard to various trace elements, the medium was replaced with ADS buffer (prepared using Millipore water supplemented with 116 mM NaCl, 5.3 mM KCl, 1 mM CaCl2, 1.2 mM MgSO4, 1.13 mM NaH2PO4, 5 mM D-glucose, and 20 mM HEPES, pH 7.4). Cells were then loaded with 2 μM of the cell-permeable calcein green acetoxymethyl ester (calcein-AM; Molecular Probes, Oregon, USA) for 30 min/37°C and washed. Cellular esterases cleave the acetoxymethyl groups to form the cell membrane-impermeable compound, calcein green. The fluorescence of calcein green is quenched upon binding iron. The intracellular fluorescence (λex = 488 nm; λem = 530 nm) of calcein green was then followed as a function of time (10 min after the addition of 10 μM Bp4eT or its metabolites) at 37°C using the Tecan Infinite 200M plate reader. The iron chelation efficacy of the metabolites in cells was expressed as a percentage of the efficacy of the parent chelator, Bp4eT (100%).

[2] = system: caspases 3/7; assay: Caspase activity, luminescent kit, caspases 3/7; settings: for kaspáza (3) a 7, raw signal / kaspáza (3) a 7, signal / viabilita: individual experiments by date; for kaspáza (3) a 7, průměry (means of raw signal): mean of 4 experiments
Method: To assess the effect of the compounds on caspase activity, MCF-7 cells were incubated with 100 nM Bp4eT or its metabolites for 3, 24 or 72 h/37°C in 96-well plates, as described above. The cells were then lysed by adding 100 μL of cold lysis buffer (100 mM HEPES, 10 mM CHAPS, 10 mM D-L-dithiothreitol, pH 7.4) to 100 μL of medium in each well. Lysates were immediately frozen at -80°C. Thawed lysates were used to assess caspase activity using luminescent kits for caspases 3/7, 8 and 9 (Promega, Madison, WI, USA). The luminescence was measured using the Tecan Infinite 200M plate reader. Caspase activity in the experimental groups was corrected according to the cellular viability of each group and expressed as a percentage of activity of the untreated control (100%).

[3] = Viability (viabilita) used to normalise caspase activity; settings: human, MCF-7 cells, kontrola = 100; for viability at 3 h, 100 nM: 3 hodiny; for viability at 24 h, 100 nM: 24 hodin; for viability at 72 h, 100 nM: 72 hodin;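 for all read-outs here: compound tested at 100 nM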
Text: Supplement pone.0139929.s002.zip/caspases activity.xlsx, sheet "results_viability"

[4] = system: MCF-7 cells prelabeled with 59Fe2-transferrin; assay: Mobilization (efflux) of cellular 59Fe; design: Efflux 59Fe / Efflux 59Fe, Ave: unit not given here; settings: for Efflux 59Fe, Ave: average of all replicates; for Efflux 59Fe: single replicate (three per date)
Text: Human transferrin (Sigma) was labeled with ^56Fe or ^59Fe (PerkinElmer, Massachusetts, USA) to produce ^56Fe2-transferrin or ^59Fe2-transferrin (^59Fe2-Tf), respectively, with a final specific activity of 500 pCi/pmol Fe, as previously described. Unbound ^59Fe was removed by exhaustive vacuum dialysis against a large excess of 0.15 M NaCl buffered to pH 7.4 with 1.4% NaHCO3 by standard methods.
To examine the ability of studied compounds to mobilize cellular ^59Fe from MCF-7 cells, iron efflux experiments were performed using established techniques. In brief, after pre-labeling confluent MCF-7 cells on 6-well plates with 0.75 μM ^59Fe2-Tf for 3 h/37°C, the cells were washed four times with ice-cold PBS and then subsequently incubated with 25 μM of Bp4eT or its metabolites for 3 h/37°C. The overlying medium containing released ^59Fe was then decanted from the cells. Radioactivity was measured in both the cells and the supernatant using a γ-scintillation counter (Wallac Wizard 3, Turku, Finland).

[5] = 3 hodiny, mean, normalised to viability
[6] = 3 hodiny, normalised to viability
[7] = 3 hodiny, normalised to viability, mean
[8] = 24 hodin, mean, normalised to viability
[9] = 24 hodin, normalised to viability
[10] = 24 hodin, normalised to viability, mean
[11] = 72 hodin, mean, normalised to viability
[12] = 72 hodin, normalised to viability
[13] = 72 hodin, normalised to viability, mean

CCN=CNN=C(c1ccccc1)c1ccccn1 [Bp4eA, N ^3-ethyl-N ^1-[phenyl(pyridin-2-yl)methylene]formamidrazone]
Calcein fluorescence ([1]; 30 sec, mean (průměr)): 16.628
Calcein fluorescence ([1]; 60 sec, mean (průměr)): 5.072
Calcein fluorescence ([1]; 90 sec, mean (průměr)): 8.535
Calcein fluorescence ([1]; 120 sec, mean (průměr)): 16.564
Calcein fluorescence ([1]; 300 sec, mean (průměr)): 13.356
Calcein fluorescence ([1]; 600 sec, mean (průměr)): 12.951
Chelation efficacy: fluorescence of free calcein at t = 600 s as percentage of Bp4eT [1]: 5.9% and 5.872%
kaspáza (3) a 7, raw signal ([2]; 3 hodiny): 1911.5 and 1519 and 1669 and 1490
kaspáza (3) a 7, raw signal, průměry ([2]; 3 hodiny, mean): 1647.38
kaspáza (3) a 7, % kontroly [2, 5]: 103.19 % kontroly
kaspáza (3) a 7, signal / viabilita [2, 6]: 19.7461 and 15.6915 and 17.241 and 15.3919
kaspáza (3) a 7, signal / viabilita, průměry [2, 7]: 17.0176
kaspáza (3) a 7, raw signal ([2]; 24 hodin): 2415 and 2091.5 and 2337 and 2002.5
kaspáza (3) a 7, raw signal, průměry ([2]; 24 hodin, mean): 2211.5
kaspáza (3) a 7, % kontroly [2, 8]: 101.36 % kontroly
kaspáza (3) a 7, signal / viabilita [2, 9]: 25.2632 and 21.8791 and 24.4473 and 20.9481
kaspáza (3) a 7, signal / viabilita, průměry [2, 10]: 23.1344
kaspáza (3) a 7, raw signal ([2]; 72 hodin): 7143 and 7295 and 7483 and 8002
kaspáza (3) a 7, raw signal, průměry ([2]; 72 hodin, mean): 7480.75
kaspáza (3) a 7, % kontroly [2, 11]: 108.88 % kontroly
kaspáza (3) a 7, signal / viabilita [2, 12]: 76.7734 and 78.4071 and 80.4278 and 86.006
kaspáza (3) a 7, signal / viabilita, průměry [2, 13]: 80.4036
viability at 3 h, 100 nM [3]: 96.8%
viability at 24 h, 100 nM [3]: 95.6%
viability at 72 h, 100 nM [3]: 93%
Efflux 59Fe, Ave [4]: 3.53
Efflux 59Fe [4]: 4.0325 and 2.6377 and 3.5208 and 3.7889 and 3.2967 and 3.9821 and 3.9608 and 3.1218 and 3.4276

CCNC(=S)NN=C(c1ccccc1)c1ccccn1 [Bp4eT, 2-benzoylpyridine 4-ethyl-3-thiosemicarbazone]
Calcein fluorescence ([1]; 30 sec, mean (průměr)): 27.822
Calcein fluorescence ([1]; 60 sec, mean (průměr)): 40.360
Calcein fluorescence ([1]; 90 sec, mean (průměr)): 65.393
Calcein fluorescence ([1]; 120 sec, mean (průměr)): 66.572
Calcein fluorescence ([1]; 300 sec, mean (průměr)): 146.135
Calcein fluorescence ([1]; 300 sec, single experiments): 168.950 and 158.308 and 180.958 and 116.900 and 150.183 and 101.508
Calcein fluorescence ([1]; 600 sec, mean (průměr)): 220.551
Calcein fluorescence ([1]; 600 sec, single experiments): 239.975 and 219.283 and 288.833 and 220.450 and 195.583 and 159.183
Chelation efficacy: fluorescence of free calcein at t = 600 s as percentage of Bp4eT [1]: 100%
Fluorescence of free calcein at 600 s as percentage of Bp4eT [1]: 108.807% and 99.4251% and 130.96% and 99.954% and 88.6793% and 72.1752%
Activation of caspases 7, 8 and 9 ([2]; 100 nM, 3 h, MCF-7, statement covers caspases 7, 8 and 9): did not activate any of the caspases
Caspase 7 activity, % of the control ([2]; 100 nM, 24 h, MCF-7, corrected for viability): 203%
Caspase 7 activity, % of control ([2]; 100 nM, 72 h, MCF-7, corrected for viability): 318%
kaspáza (3) a 7, % kontroly ([2]; 3 hodiny (3 h), % of control): 96.83%
kaspáza (3) a 7, průměry (means of raw signal) ([2]; 3 hodiny (3 h)): 1616.38
kaspáza (3) a 7, raw signal ([2]; 3 hodiny): 1828 and 1581 and 1679 and 1377.5
kaspáza (3) a 7, raw signal, průměry ([2]; 3 hodiny, mean): 1616.38
kaspáza (3) a 7, % kontroly [2, 5]: 101.92 % kontroly
kaspáza (3) a 7, signal / viabilita [2, 6]: 18.975 and 16.4111 and 17.4284 and 14.2987
kaspáza (3) a 7, signal / viabilita, průměry [2, 7]: 16.7783
kaspáza (3) a 7, % kontroly ([2]; 24 hodin (24 h), % of control): 107.61%
kaspáza (3) a 7, průměry (means of raw signal) ([2]; 24 hodin (24 h)): 2465.5
kaspáza (3) a 7, raw signal ([2]; 24 hodin): 2823.5 and 2154.5 and 2683 and 2201
kaspáza (3) a 7, raw signal, průměry ([2]; 24 hodin, mean): 2465.5
kaspáza (3) a 7, % kontroly [2, 8]: 203.48 % kontroly
kaspáza (3) a 7, signal / viabilita [2, 9]: 53.4249 and 40.7664 and 50.7664 and 41.6462
kaspáza (3) a 7, signal / viabilita, průměry [2, 10]: 46.651
kaspáza (3) a 7, % kontroly ([2]; 72 hodin (72 h), % of control): 86.15%
kaspáza (3) a 7, průměry (means of raw signal) ([2]; 72 hodin (72 h)): 6404.25
kaspáza (3) a 7, raw signal ([2]; 72 hodin): 10190.5 and 6963 and 3947 and 4516.5
kaspáza (3) a 7, raw signal, průměry ([2]; 72 hodin, mean): 6404.25
kaspáza (3) a 7, % kontroly [2, 11]: 318.49 % kontroly
kaspáza (3) a 7, signal / viabilita [2, 12]: 376.172 and 257.032 and 145.7 and 166.722
kaspáza (3) a 7, signal / viabilita, průměry [2, 13]: 236.406
viability at 3 h, 100 nM [3]: 96.3%
viability at 24 h, 100 nM [3]: 52.8%
viability at 72 h, 100 nM [3]: 27.1%
Release of cellular 59Fe, % of total cellular 59Fe ([4]; 25 μM, 3 h/37°C, MCF-7): 46.4%
Efflux 59Fe, Ave [4]: 46.4439
Efflux 59Fe [4]: 48.2798 and 45.5975 and 45.2039 and 47.6936 and 45.8687 and 45.6484 and 48.9726 and 45.6298 and 45.1012

CCNC(=O)NN=C(c1ccccc1)c1ccccn1 [E-Bp4eS, 2-benzoylpyridine 4-ethylsemicarbazone]
Calcein fluorescence ([1]; 30 sec, mean (průměr)): 0.000
Calcein fluorescence ([1]; 30 sec, single experiments): 0.000
Calcein fluorescence ([1]; 60 sec, mean (průměr)): 3.596
Calcein fluorescence ([1]; 90 sec, mean (průměr)): 0.696
Calcein fluorescence ([1]; 120 sec, mean (průměr)): 1.617
Calcein fluorescence ([1]; 300 sec, mean (průměr)): 0.000
Calcein fluorescence ([1]; 300 sec, single experiments): 0.000
Calcein fluorescence ([1]; 600 sec, mean (průměr)): 0.000
Calcein fluorescence ([1]; 600 sec, single experiments): 0.000
Chelation efficacy: fluorescence of free calcein at t = 600 s as percentage of Bp4eT [1]: 0.0001667%
Fluorescence of free calcein at 600 s as percentage of Bp4eT [1]: 0%
kaspáza (3) a 7, raw signal ([2]; 3 hodiny): 2046.5 and 1555.5 and 1698 and 1596
kaspáza (3) a 7, raw signal, průměry ([2]; 3 hodiny, mean): 1724
kaspáza (3) a 7, % kontroly [2, 5]: 106.30 % kontroly
kaspáza (3) a 7, signal / viabilita [2, 6]: 20.8429 and 15.8422 and 17.2935 and 16.2547
kaspáza (3) a 7, signal / viabilita, průměry [2, 7]: 17.5583
kaspáza (3) a 7, raw signal ([2]; 24 hodin): 2362.5 and 2475 and 2765.5 and 2572
kaspáza (3) a 7, raw signal, průměry ([2]; 24 hodin, mean): 2543.75
kaspáza (3) a 7, % kontroly [2, 8]: 112.45 % kontroly
kaspáza (3) a 7, signal / viabilita [2, 9]: 23.7515 and 24.8825 and 27.8031 and 25.8577
kaspáza (3) a 7, signal / viabilita, průměry [2, 10]: 25.5737
kaspáza (3) a 7, raw signal ([2]; 72 hodin): 7302.5 and 8023 and 7227 and 8569
kaspáza (3) a 7, raw signal, průměry ([2]; 72 hodin, mean): 7780.38
kaspáza (3) a 7, % kontroly [2, 11]: 107.49 % kontroly
kaspáza (3) a 7, signal / viabilita [2, 12]: 74.6601 and 82.0264 and 73.8882 and 87.6086
kaspáza (3) a 7, signal / viabilita, průměry [2, 13]: 79.5458
Efflux 59Fe, Ave [4]: 3.661
Efflux 59Fe [4]: 4.9211 and 3.6997 and 3.3917 and 3.5987 and 3.8929 and 3.2529 and 3.6068 and 3.4574 and 3.1235
